Laboratory results published in patent US20260060960A1, “GAMMA-SECRETASE INHIBITORS FOR USE IN THE TREATMENT OF INHERITED EPIDERMOLYSIS BULLOSA” (OSPEDALE PEDIATRICO BAMBINO GESU', priority 2022, published 2026).
“Also recorded” adds a separate entry of the source.

Experiments:
Assay type in all cases: cell-based, human
[1] = tested on: NOTCH1 intracellular domain (N1-ICD); experiment: Immunoblotting of cleaved NOTCH1 (N1-ICD) in nuclear extracts of RDEB fibroblasts; conditions: 24 h; for intranuclear levels of N1-ICD: RDEB-FBs, 5, 10 and 20 μM
Source text: (§1) 3-(4,5-dimethyl-2-thiazolyl)-2,5-diphenyl-2H-tetrazolium bromide (MTT) assay showing the impact of DAPT and PF-03084014 treatment on viability and proliferation rate of three primary fibroblast strains from healthy controls (NH-FBs). Absorbance values (Abs) were converted in percentage by using the following formula: AbsDAPT or PF-03084014×100/AbsREFERENCE WELLS. Data are presented as mean±standard deviation (SD) of at least eight technical replicates per condition. Cells treated with the vehicle DMSO (Panel A), and cells analyzed 24 h after seeding (T0) (Panel B) were considered as reference wells. NH-FBs were growth in DMEM medium containing 10% fetal bovine serum (FBS). […] Based on the results, it was chosen to use GSIs at 20 μM (black arrows) as it was the minimal drug concentration inducing a reduction of cell proliferation after 24 h of treatment. (Panel C) Immunoblotting analysis showing the protein levels of the cleaved and biologically active form of NOTCH1 receptor (N1-ICD, NOTCH1 intracellular domain) in nuclear extracts of primary fibroblasts from RDEB patients (RDEB-FBs, n=2) treated for 24 h with DAPT and PF-03084014 at different doses, ranging from 0.1 to 20 μM. Cells treated with the vehicle dimethyl sulfoxide (DMSO) were used as control. The reduced nuclear localization of N1-ICD indicates Notch pathway inhibition. […] Lamin B1 (LMNB1) and glyceraldehyde-3-phosphate dehydrogenase (GAPDH) served as loading controls for the nuclear and cytoplasmic protein fractions, respectively. **P-value <0.01, ***P<0.001.
RDEB-FBs were seeded on 100 mm cell culture dishes (8×10^5 cells/dish). Subconfluent cells were treated with different concentrations of PF-03084014 or DAPT for 24 h (FIG. 1—Panel C) or with 2 ng/mL of TGF-β1 for 6 h (FIG. 3D). DMSO-treated cells were used as controls. After cell harvesting with trypsin-EDTA, cytoplasmic and nuclear lysates were obtained using NE-PER™ Nuclear and Cytoplasmic Extraction Reagents kit (Thermo Fisher Scientific), following the manufacturer's instructions with slight modifications. […]

[2] = tested on: primary fibroblast strains from healthy controls (NH-FBs); experiment: MTT viability/proliferation assay on primary fibroblasts from healthy controls
Source text: as §1
GSIs halt the processing of Notch receptor, and, in turn, play a role as indirect inhibitors of Notch signaling cascade. Following their reconstitution at 10 mM in dimethyl sulfoxide (DMSO), GSI aliquots were stored at −20° C. until use, avoiding freeze-thaw cycles. GSI treatment was performed in DMEM containing 10% FBS, unless otherwise specified. According to previous reports, RDEB-FBs were serum-starved overnight in DMEM containing BSA prior to be treated with GSIs. Cells treated with the vehicle DMSO were used as controls. GSIs were used at different concentrations ranging from 1 to 20 μM depending on the assay. […]
Proliferation rate was assessed by 3-(4,5-dimethyl-2-thiazolyl)-2,5-diphenyl-2H-tetrazolium bromide (MTT) assay, following the manufacturer's protocol. […] Thereafter, cells were lysed in DMSO to dissolve formazan crystals and absorbance values were recorded at 560 nm with an Infinite F50 microplate reader (Tecan, Mannedorf, Switzerland). Values recorded 24 h after cell seeding, before GSI stimulation (TO) were used as reference. […]

[3] = tested on: primary fibroblasts from RDEB patients (RDEB-FBs); experiment: Collagen deposition analysis (Sircol assay); conditions: 96 h
Description: The amount of collagens deposited into the extracellular matrix (ECM) was measured by using the Sirius red staining-based Sircol assay (Biocolor, Carrickfergus, Northern Ireland-UK). Briefly, two RDEB-FB strains were seeded into 12-well plates (55.000 cells/well), and growth for two days until they reached about 80-90% confluence. Then, cells were treated for 96 h with PF-03084014 (5 μM), DAPT (20 μM) or the corresponding amount of vehicle DMSO in serum-free media. GSI stimulation was performed in the presence or in the absence of TGF-β1 (2 ng/mL) as inducer of collagen synthesis. In order to further improve collagen deposition, RDEB-FB cultures were daily supplemented with 50 μg/mL of L-ascorbic acid (Merck) and 100 μg/mL of dextran sulfate 500 kDa (Merck). ECM collagens were solubilized by scraping culture wells with a solution of 0.5 M acid acetic containing pepsin at 0.1 mg/mL (Pepsin […].4.23.1, product code: […], Merck) and incubated overnight at 4° C. in agitation. The day after, ECM lysates were neutralized with 100 μL of Acid Neutralizing Reagent (Biocolor), and concentrated by overnight incubation in ice-water mix, in the presence of 200 μL of Isolation & Concentration Reagent (Biocolor). Sample absorbance values were measured by BioTek Synergy H1 microplate reader (Agilent, Santa Clara, CA, USA) at 560 nm and analyzed through the GEN5TM software v. 3.04 (Agilent).

Row | SMILES | intranuclear levels of N1-ICD [1] | proliferation rate (MTT) ([2]; 20 and 40 μM, 48 h, vs DMSO) | collagen deposition into the ECM ([3]; 20 μM, with or without TGF-β1) | nuclear N1-ICD protein levels (NOTCH1 cleavage and nuclear translocation) ([1]; RDEB-FBs, 0.1, 0.5, 1 μM, compared with DAPT) | cell viability (MTT) compared to cells before GSI treatment (T0) ([2]; 40 μM) | fibroblast proliferation / cytotoxicity (MTT) ([2]; 5-20 μM) | effects on proliferation rate (MTT) ([2]; 20 and 40 μM at 24 h, 5 and 10 μM at 48 h, vs DMSO) | reduction of pepsin-soluble collagens deposited into the ECM ([3]; 5 μM, absence or presence of TGF-β1, vs untreated)
1 | C[C@H](NC(=O)Cc1cc(F)cc(F)c1)C(=O)N[C@H](C(=O)OC(C)(C)C)c1ccccc1 [DAPT, N—[N-(3,5-difluorophenacetyl)-L-alanyl]-S-phenylglycine t-butyl ester] | comparable impact on the intranuclear levels of N1-ICD | slight but statistically significant reduction of proliferation rate | DAPT-mediated reduction of collagen deposition in each experimental condition, though the difference was moderate | – | – | – | – | –
2 | CCC[C@H](N[C@H]1CCc2cc(F)cc(F)c2C1)C(=O)Nc1cn(C(C)(C)CNCC(C)(C)C)cn1 [PF-03084014, (S)-2-((S)-5,7-difluoro-1,2,3,4-tetrahydronaphthalen-3-ylamino)-N-(1-(2-methyl-1-(neopentylamino)propan-2-yl)-1H-imidazol-4-yl)pentanamide] | comparable impact on the intranuclear levels of N1-ICD | – | – | huge reduction; also recorded: greater ability of PF-03084014 in inhibiting NOTCH1 cleavage and its nuclear translocation | reduction of cell viability | affected fibroblast proliferation in a time- and dose-dependent manner, in the absence of overt cytotoxicity | observed after 24 h of treatment, and became more evident after 48 h of treatment, even at low doses (5 and 10 μM) | 50%
